Legend:
male KK-A^y mice [1] = test: Hypoglycemic action (method A); assay type: in vivo, mouse; conditions: 4 consecutive days, non-fasting, about 24 hours after final administration, vs control group
Protocol: (§1) The glucose level in the plasma was measured using a commercially available assay kit (glucose CII-test WAKO, Wako Pure Chemical Industries, Ltd.). The mice were grouped (5 mice per group) into a control group and an administration group, such that the mean and the standard deviation of the glucose level in the plasma of each group were nearly the same. Each test compound was suspended or dissolved in 5% gum arabic solution and administered orally to the administration group for 4 consecutive days from the next day. The 5% gum arabic solution was orally administered to the control group. Blood was drawn from the tail vein under a non-fasting state about 24 hours after the final administration and the glucose level in the plasma was measured. The decrease in the plasma glucose level was calculated from the following formula.
Decrease (%) in plasma glucose level=[(mean plasma glucose level of control group−mean plasma glucose level of test compound administration group)/mean plasma glucose level of control group]×100

male KK-A^y mice [2] = test: Hypotriglyceridemic action; assay type: in vivo, mouse; conditions: dose 30 mg/kg orally, 4 consecutive days, non-fasting, about 24 hours after final administration, vs control group
Protocol: as §1, with “triglyceride” for “glucose”, “(triglyceride G-test” for “(glucose CII-test”
Decrease (%) in plasma triglyceride level=[(mean plasma triglyceride level of control group−mean plasma triglyceride level of test compound administration group)/mean plasma triglyceride level of control group]×100

3T3-L1 cells = test: Triglyceride accumulation promoting action in 3T3-L1 cells; assay type: cell-based; conditions: 10^−7 M test compound with 10 ng/ml insulin, 4 days; relative to control
Protocol: A culture medium of 80% confluent 3T3-L1 cells was removed and the cells were dissociated with 0.25% trypsin-EDTA solution. 5% FBS-DMEM (the same amount as the removed medium) was added and the obtained cell suspension was centrifuged at 25° C., 100×g for 1 min to give cell sediment and the supernatant was removed. The cells were re-suspended in a suitable amount of 5% FBS-DMEM medium and the cells were counted. 5% FBS-DMEM medium was added to adjust the concentration to 1×10^5 cells/ml and the mixture was dispensed by 1 ml to a 24 well plate. The cells were cultured with aeration of 5% CO2 at 37° C. for 2 days. Upon confirmation of a post-confluent state, the culture supernatant was changed to a medium containing 0.5 mM-IBMX, and the cells were cultured for 2 days. Then, the medium was changed to a medium containing 10 ng/ml insulin and 10^−7 M test compound and the cells were cultured further for 4 days. After removing the culture supernatant, the cells were lysed in a 0.1% SDS solution and the triglyceride amount was measured. The triglyceride accumulation (%) due to the potentiation of insulin activity by the test compound was calculated from the following formula.
[(triglyceride amount with addition of test compound−triglyceride amount of control)/triglyceride amount of control]×100

Row | SMILES | Decrease (%) in plasma glucose level (male KK-A^y mice [1]; dose 10 mg/kg orally) | Decrease (%) in plasma glucose level (male KK-A^y mice [1]; dose 30 mg/kg orally) | Decrease (%) in plasma triglyceride level (male KK-A^y mice [2]) | Triglyceride accumulation (%) (3T3-L1 cells)
1 | CCCCCC(=O)N1Cc2cc(OCCc3nc(-c4ccccc4)oc3C)ccc2C[C@H]1C(=O)O [Example 5, 2-Hexanoyl-7-[2-(5-methyl-2-phenyloxazol-4-yl)ethoxy]-1,2,3,4-tetrahydroisoquinoline-(3S)-carboxylic acid] | 34.1% | 43.4% | 30.9% | 233.0%
2 | Cc1oc(-c2ccccc2)nc1CCOc1ccc2c(c1)CN(CC1CCCCC1)[C@H](C(=O)O)C2 [Example 8, 2-Cyclohexylmethyl-7-[2-(5-methyl-2-phenyloxazol-4-yl)ethoxy]-1,2,3,4-tetrahydroisoquinoline-(3S)-carboxylic acid] | – | – | – | 275.5%
3 | COc1ccc(CN2Cc3cc(OCCc4nc(-c5ccccc5)oc4C)ccc3C[C@H]2C(=O)O)cc1 [Example 16, 2-(4-Methoxybenzyl)-7-[2-(5-methyl-2-phenyloxazol-4-yl)ethoxy]-1,2,3,4-tetrahydroisoquinoline-(3S)-carboxylic acid] | – | 34.5% | 19.8% | 288.9%
4 | Cc1oc(-c2ccccc2)nc1CCOc1ccc2c(c1)CN(Cc1ccc(F)cc1)[C@H](C(=O)O)C2 [Example 21, 2-(4-Fluorobenzyl)-7-[2-(5-methyl-2-phenyloxazol-4-yl)ethoxy]-1,2,3,4-tetrahydroisoquinoline-(3S)-carboxylic acid] | – | 43.4% | 24.4% | 284.9%
5 | Cc1oc(-c2cccs2)nc1CCOc1ccc2c(c1)CN(Cc1ccccc1)[C@H](C(=O)O)C2 [Example 33, 2-Benzyl-7-[2-(5-methyl-2-(thiophen-2-yl)oxazol-4-yl)ethoxy]-1,2,3,4-tetrahydroisoquinoline-(3S)-carboxylic acid] | – | 38.8% | 42.0% | 222.5%
6 | C=CCCc1nc(CCOc2ccc3c(c2)CN(Cc2ccccc2)[C@H](C(=O)O)C3)c(C)o1 [Example 37] | – | 11.1% | – | 277.3%
7 | C#CCN1Cc2cc(OCCc3nc(-c4ccccc4)oc3C)ccc2C[C@H]1C(=O)O [Example 39, 7-[2-(5-Methyl-2-phenyloxazol-4-yl)ethoxy]-2-(2-propynyl)-1,2,3,4-tetrahydroisoquinoline-(3S)-carboxylic acid] | – | 30.7% | 15.6% | 258.0%
8 | CC=CCN1Cc2cc(OCCc3nc(-c4ccccc4)oc3C)ccc2C[C@H]1C(=O)O [Example 40] | – | 46.3% | 36.1% | 231.0%
9 | CCCCC(=O)N1Cc2cc(OCCc3nc(-c4ccccc4)oc3C)ccc2C[C@H]1C(=O)O [Example 43, 7-[2-(5-Methyl-2-phenyloxazol-4-yl)ethoxy]-2-pentanoyl-1,2,3,4-tetrahydroisoquinoline-(3S)-carboxylic acid] | – | 27.5% | 20.9% | –
10 | CC(C)(CCOc1ccc2c(c1)CN(Cc1ccccc1)[C@H](C(=O)O)C2)c1ccccc1 [Example 49, 2-Benzyl-7-(3-methyl-3-phenylbutoxy)-1,2,3,4-tetrahydroisoquinoline-(3S)-carboxylic acid] | – | 11.1% | 17.0% | –
11 | CC(C)(CCOc1ccc2c(c1)CN(Cc1ccccc1)[C@H](C(=O)O)C2)Cc1ccccc1 [Example 50, 2-Benzyl-7-(3,3-dimethyl-4-phenylbutoxy)-1,2,3,4-tetrahydroisoquinoline-(3S)-carboxylic acid] | – | 11.4% | 35.7% | –
12 | CC(C)c1nc2ccc(COc3ccc4c(c3)CN(Cc3ccccc3)[C@H](C(=O)O)C4)cc2o1 [Example 51, 2-Benzyl-7-(2-isopropylbenzoxazol-6-yl)methoxy-1,2,3,4-tetrahydroisoquinoline-(3S)-carboxylic acid] | – | 20.0% | 10.7% | –
13 | CC(C)(C)c1nc2ccc(COc3ccc4c(c3)CN(Cc3ccccc3)[C@H](C(=O)O)C4)cc2o1 [Example 52, 2-Benzyl-7-(2-tert-butylbenzoxazol-6-yl)methoxy-1,2,3,4-tetrahydroisoquinoline-(3S)-carboxylic acid] | – | 26.3% | 26.6% | –
14 | COC(=O)[C@@H]1Cc2ccc(OCCc3nc(-c4ccccc4)oc3C)cc2CN1Cc1ccccc1 [Example 58, Methyl 2-benzyl-7-[2-(5-methyl-2-phenyloxazol-4-yl)ethoxy]-1,2,3,4-tetrahydroisoquinoline-(3S)-carboxylate] | – | 19.1% | 24.7% | –
15 | CCC=Cc1nc(CCOc2ccc3c(c2)CN(Cc2ccccc2)[C@H](C(=O)O)C3)c(C)o1 [Example 62, 2-Benzyl-7-{2-[2-(1-butenyl)-5-methyloxazol-4-yl]ethoxy}-1,2,3,4-tetrahydroisoguinoline-(3S)-carboxylic acid] | – | – | – | 327.8%
16 | Cc1oc(-c2ccccc2)nc1CCOc1ccc2c(c1)CN(CC(=O)O)[C@H](C(=O)O)C2 [Example 69, 2-Carboxymethyl-7-[2-(5-methyl-2-phenyloxazol-4-yl)ethoxy]-1,2,3,4-tetrahydroisoquinoline-(3S)-carboxylic acid] | – | 12.5% | 15.2% | –
17 | CC(=O)c1cccc(CN2Cc3cc(OCCc4nc(-c5ccccc5)oc4C)ccc3C[C@H]2C(=O)O)c1 [Example 73, 2-(3-Acetylbenzyl)-7-[2-(5-methyl-2-phenyloxazol-4-yl)ethoxy]-1,2,3,4-tetrahydroisoquinoline-(3S)-carboxylic acid] | – | 14.8% | 15.4% | –
